Tests used:
[1] = test system: male Wistar rats on atherogenic diet; assay: Experimental atherosclerosis tests (atherogenic diet for six weeks); assay type: in vivo; conditions: 100 mg/kg of each component
Method: D2 200 mUST/g diet was administered for six weeks consecutively to different groups of male Wistar rats.
While one group of rats served as a control group, the other groups were administered chitosan (100 mg/kg) or propionyl L-carnitine (100 mg/kg) or chitosan (100 mg/kg) plus propionyl L-carnitine (100 mg/kg).
Another group of animals was administered acetyl L-carnitine (100 mg/kg) and butyryl L-carnitine (100 mg/kg) in addition to chitosan and propionyl L-carnitine.

[2] = test system: experimentally obese rats; assay: Tests in experimentally obese rats (lipogenic diet for fifteen days); assay type: in vivo, Wistar rats
Method: In these tests, male Wistar rats aged approximately two months were administered a lipogenic diet containing 50% glucose, 20% casein, 4% cellulose, 1% hazel nut oil, 18% starch, 2% vitamin mixture, and 5% salt mixture. The diet was administered for fifteen days consecutively to different groups of rats, one of which served as a control group, whereas the remaining groups were administered daily, per 100 g of diet, 2 g of propionyl L-carnitine or 1 g of chitosan, or the two compounds in combination at the same doses.
Another group was also administered acetyl L-carnitine (2 g/100 g diet) and butyryl L-carnitine (0.5 g/100 g diet) in addition to propionyl L-carnitine and chitosan.
At the end of the fifteenth day since the beginning of the diet, feed consumption and increase in body weight were calculated for each group of rats.

[3] = test system: experimentally hypercholesterolaemic rabbits; assay: Tests in experimentally hypercholesterolaemic rabbits (plasma lipoproteins); assay type: in vivo, New Zealand rabbits
Method: Another type of experiment was conducted in New Zealand rabbits kept on a hypercholesterolaemic diet for forty days and treated with alkanoyl L-carnitine, chitosan or with the two types of compounds in combination. In these tests, 0.5% by weight of cholesterol was added to the normal diet of the rabbits consisting of 150 g/day and containing 2% fats, 20% fibres and 11% ashes.
While one group of animals was used as a control group, the remaining groups were treated for six days with propionyl L-carnitine (2 g/100 g diet), chitosan (1 g/100 g diet), or propionyl L-carnitine+acetyl L-carnitine+butyryl L-carnitine (1 g+1 g+1 g/100 g diet) or with chitosan plus propionyl L-carnitine or chitosan plus the alkanoyl carnitine complex at the doses indicated above.
At the end of the fortieth day of treatment blood samples were taken from the ear vein from all animals and the plasma was used to calculate lipoprotein content in the various fractions (VLDL, LDL, HDL) after ultracentrifuging according to the method described by Noble (Noble R. P., J. Lipid Res., 9:693, 1968).

[4] = Day 40 of 0.5% cholesterol diet

SMILES: CCC(=O)O[C@H](CC(=O)[O-])C[N+](C)(C)C [Propionyl L-carnitine, propionyl L-carnitine]
- Protective effect against atherosclerotic lesions induced by the atherogenic diet [1]: substantial protective effect
- Mean daily feed consumption (g)/animal, before treatment ([2]; before treatment, lipogenic diet, per 100 g diet: propionyl L-carnitine 2 g, chitosan 1 g, acetyl L-carnitine 2 g, butyryl L-carnitine 0.5 g): 19.8 ± 0.71 g
- Mean body growth, final weight increase ([2]; end of fifteenth day of lipogenic diet, same doses in diet): 60.8 ± 5.2
- Mean daily feed consumption (g)/animal, at the end of treatment ([2]; end of fifteenth day, lipogenic diet, per 100 g diet: propionyl L-carnitine 2 g, chitosan 1 g, acetyl L-carnitine 2 g, butyryl L-carnitine 0.5 g): 18.9 ± 0.50 g
- Plasma lipoprotein concentration HDL ([3]; Day 0): 24.2 ± 2.4 mg/dL
- Plasma lipoprotein concentration LDL ([3]; Day 0): 9.8 ± 1.9 mg/dL
- Plasma lipoprotein concentration VLDL ([3]; Day 0): 1.4 ± 0.9 mg/dL
- Plasma lipoprotein concentration HDL [3, 4]: 26.5 ± 10.4 mg/dL
- Plasma lipoprotein concentration LDL [3, 4]: 322 ± 31.4 mg/dL
- Plasma lipoprotein concentration VLDL [3, 4]: 832 ± 105 mg/dL
- Increase in VLDL compared with control animals (in words) ([3]; fortieth day, hypercholesterolaemic diet): much less significant
